{"source": "patent US20020041897A1", "about": "“Compositions for sustained release of antineoplastic taxanes, and methods of making and using the same” (priority 2000, published 2002)", "assay": "Plasma concentrations of paclitaxel as a function of dose after intraperitoneal administration to dogs", "settings": "dog", "protocol": "(30%) microspheres were administered intraperitoneally to dogs at doses of 90, 120, 150, 180 and 210 mg/kg; paclitaxel was administered at doses of 9 mg/kg and 12 mg/kg to other dogs. Each dose group comprised one female dog. Plasma samples were taken from each dog at various time points. Samples were analyzed using a LC/MS/MS method. Results are depicted in FIG. 10.\nFollowing administration of 90 and 120 mg/kg doses of […] (30%) microspheres, plasma samples were collected through 63 days. At doses of 150 and 180 mg/kg, the last sample was obtained at 35 days. The last sampling time for the 210 mg/kg dose was 28 days."}
{"smiles": "CC(=O)O[C@H]1C(=O)[C@@]2(C)[C@H]([C@H](OC(=O)c3ccccc3)[C@]3(O)C[C@H](OC(=O)[C@H](O)[C@@H](NC(=O)c4ccccc4)c4ccccc4)C(C)=C1C3(C)C)[C@]1(OC(C)=O)CO[C@@H]1C[C@@H]2O", "note": "[paclitaxel]", "values": [{"measurement": "toxicity outcome", "setting": "in vivo, ip, 12 mg/kg", "value": "euthanized before the completion of the study due to toxicity"}, {"measurement": "decline of plasma paclitaxel concentration", "setting": "intraperitoneal, 9 mg/kg", "value": "declined in a biphasic manner"}, {"measurement": "time at which maximum plasma paclitaxel concentration was reached", "setting": "intraperitoneal, 9 mg/kg", "value": 0.5, "unit": "days"}, {"measurement": "time post dose beyond which plasma paclitaxel could not be detected", "setting": "intraperitoneal, 9 mg/kg", "value": "≤ 7", "unit": "days"}]}
